Test results published in ChEMBL document CHEMBL1143804, “Synthesis and antibacterial evaluation of 1beta-methyl-2-[5-(1-methoxyimino-2-substituted sulfonamide ethyl)pyrrolidin-3-ylthio]carbapenems and their related compounds” (2007).
Converted amounts (≈) assume the structure as drawn.

Columns and labels:
Staphylococcus aureus [1] = test: Antibacterial activity against Staphylococcus aureus 503; assay type: functional
Pasteurella multocida = test: Antibacterial activity against Pasteurella multocida; assay type: functional
[2] = system: Corynebacterium diphtheriae; test: Antibacterial activity against Corynebacterium diphtheriae; assay type: functional
Proteus vulgaris = test: Antibacterial activity against Proteus vulgaris 868; assay type: functional
Proteus mirabilis [3] = test: Antibacterial activity against Proteus mirabilis 112/3; assay type: functional
Enterobacter cloacae [4] = test: Antibacterial activity against Enterobacter cloacae 417; assay type: functional
Escherichia coli [5] = test: Antibacterial activity against Escherichia coil V6311/65; assay type: functional
Escherichia coli [6] = test: Antibacterial activity against Escherichia coli 086; assay type: functional
Streptococcus agalactiae = test: Antibacterial activity against Streptococcus agalactiae B; assay type: functional
Salmonella = test: Antibacterial activity against Salmonella orion; assay type: functional
Enterococcus durans = test: Antibacterial activity against Streptococcus durans D; assay type: functional
Pseudomonas aeruginosa [7] = test: Antibacterial activity against Pseudomonas aeruginosa 880/2; assay type: functional
Escherichia coli [8] = test: Antibacterial activity against Escherichia coli 0126; assay type: functional
Klebsiella pneumoniae = test: Antibacterial activity against Klebsiella pneumonise 477; assay type: functional
Escherichia coli [9] = test: Antibacterial activity against Escherichia coli TEM; assay type: functional
Micrococcus luteus = test: Antibacterial activity against Micrococcus luteus ATCC 9341; assay type: functional
Staphylococcus aureus [10] = test: Antibacterial activity against Staphylococcus aureus 209P; assay type: functional
Proteus mirabilis [11] = test: Antibacterial activity against Proteus mirabilis 174/3; assay type: functional
[12] = Antibacterial activity against Salmonella give; assay type: functional, Salmonella enterica subsp. enterica serovar Give; details: Salmonella enterica
Streptococcus pyogenes [13] = test: Antibacterial activity against Streptococcus pyogenes 308A; assay type: functional
Providencia rettgeri [14] = test: Antibacterial activity against Proteus rettgeri 937; assay type: functional
Streptococcus pyogenes [15] = test: Antibacterial activity against Streptococcus pyogenes 77A; assay type: functional
Serratia marcescens [16] = test: Antibacterial activity against Serratia marcescens 14273; assay type: functional
Burkholderia cepacia = test: Antibacterial activity against Pseudomonas cepacia; assay type: functional
[17] = Antibacterial activity against Salmonella oranienberg; assay type: functional, Salmonella enterica subsp. enterica serovar Oranienburg; details: Salmonella enterica
Serratia marcescens [18] = test: Antibacterial activity against Serratia marcescens 370; assay type: functional
Staphylococcus aureus [19] = test: Antibacterial activity against Staphylococcus aureus 285; assay type: functional
Bacillus subtilis = test: Antibacterial activity against Bacillus subtilts ATCC 6633; assay type: functional
Staphylococcus aureus [20] = test: Antibacterial activity against Staphylococcus aureus giorgio; assay type: functional
Providencia rettgeri [21] = test: Antibacterial activity against Proteus rettgeri 936; assay type: functional
Pseudomonas aeruginosa [22] = test: Antibacterial activity against Pseudomonas aeruginosa 77/2; assay type: functional
Staphylococcus aureus [23] = test: Antibacterial activity against Staphylococcus aureus SG511; assay type: functional
Escherichia coli [24] = test: Antibacterial activity against Escherichia coli 0114; assay type: functional
Enterococcus faecium = test: Antibacterial activity against Streptococcus faecium 77A; assay type: functional
Salmonella typhimurium = test: Antibacterial activity against Salmonella Typhimurium; assay type: functional, Salmonella enterica subsp. enterica serovar Typhimurium; details: Salmonella enterica
Klebsiella aerogenes = test: Antibacterial activity against Klebsiella aerogenes 1522E; assay type: functional
Trueperella pyogenes = test: Antibacterial activity against Corynebacterium pyogenes; assay type: functional
Enterobacter cloacae [25] = test: Antibacterial activity against Enterobacter cloacae; assay type: functional
Salmonella typhi = test: Antibacterial activity against Salmonella typhi; assay type: functional, Salmonella enterica subsp. enterica serovar Typhi; details: Salmonella enterica
Pseudomonas aeruginosa [26] = test: Antibacterial activity against Pseudomonas aeruginosa 9027; assay type: functional
Escherichia coli [27] = test: Antibacterial activity against Escherichia coli DC2; assay type: functional
Serratia marcescens [28] = test: Antibacterial activity against Serratia marcescens 6093; assay type: functional
Priestia megaterium = test: Antibacterial activity against Bacillus megaterium; assay type: functional
Pseudomonas aeruginosa [29] = test: Antibacterial activity against Pseudomonas aeruginosa 110/2; assay type: functional
Escherichia coli [30] = test: Antibacterial activity against Escherichia coil 1507; assay type: functional
Enterobacter cloacae [31] = test: Antibacterial activity against Enterobactor cloacae 1321E; assay type: functional

Question: Which MIC (Staphylococcus aureus [1]) does the source give for `C[C@@H](O)[C@H]1C(=O)N2C(C(=O)O)=C(S[C@@H]3CN[C@H](C(=O)N(C)C)C3)[C@H](C)[C@H]12` [MEROPENEM] here?
Answer: 0.05 µg/mL (≈ 0.13 µM)

Question: What about the MIC (Pasteurella multocida) of the same compound?
Answer: 0.05 µg/mL (≈ 0.13 µM)

Question: And the MIC [2]?
Answer: 0.05 µg/mL (≈ 0.13 µM)

Question: And the MIC (Proteus vulgaris)?
Answer: 0.1 µg/mL (≈ 0.261 µM)

Question: And the MIC (Proteus mirabilis [3])?
Answer: 0.1 µg/mL (≈ 0.261 µM)

Question: What about the MIC (Enterobacter cloacae [4]) of the same compound?
Answer: 0.01 µg/mL (≈ 0.0261 µM)

Question: And the MIC (Escherichia coli [5])?
Answer: 0.01 µg/mL (≈ 0.0261 µM)

Question: What about the MIC (Escherichia coli [6]) of the same compound?
Answer: 0.05 µg/mL (≈ 0.13 µM)

Question: What about the MIC (Streptococcus agalactiae) of the same compound?
Answer: 0.05 µg/mL (≈ 0.13 µM)

Question: What about the MIC (Salmonella) of the same compound?
Answer: 0.1 µg/mL (≈ 0.261 µM)

Question: And the MIC (Enterococcus durans)?
Answer: 0.8 µg/mL (≈ 2.09 µM)

Question: And the MIC (Pseudomonas aeruginosa [7])?
Answer: 0.2 µg/mL (≈ 0.522 µM)

Question: What about the MIC (Escherichia coli [8]) of the same compound?
Answer: 0.05 µg/mL (≈ 0.13 µM)

Question: And the MIC (Klebsiella pneumoniae)?
Answer: 0.05 µg/mL (≈ 0.13 µM)

Question: And the MIC (Escherichia coli [9])?
Answer: 0.025 µg/mL (≈ 0.0652 µM)

Question: And the MIC (Micrococcus luteus)?
Answer: 0.05 µg/mL (≈ 0.13 µM)

Question: And the MIC (Staphylococcus aureus [10])?
Answer: 0.1 µg/mL (≈ 0.261 µM)

Question: What about the MIC (Proteus mirabilis [11]) of the same compound?
Answer: 0.1 µg/mL (≈ 0.261 µM)

Question: And the MIC [12]?
Answer: 0.03 µg/mL (≈ 0.0782 µM)

Question: What about the MIC (Streptococcus pyogenes [13]) of the same compound?
Answer: 0.013 µg/mL (≈ 0.0339 µM)

Question: What about the MIC (Providencia rettgeri [14]) of the same compound?
Answer: 0.05 µg/mL (≈ 0.13 µM)

Question: What about the MIC (Streptococcus pyogenes [15]) of the same compound?
Answer: < 0.01 µg/mL

Question: And the MIC (Serratia marcescens [16])?
Answer: 0.2 µg/mL (≈ 0.522 µM)

Question: And the MIC (Burkholderia cepacia)?
Answer: 0.4 µg/mL (≈ 1.04 µM)

Question: And the MIC [17]?
Answer: 0.05 µg/mL (≈ 0.13 µM)

Question: And the MIC (Serratia marcescens [18])?
Answer: 0.05 µg/mL (≈ 0.13 µM)

Question: What about the MIC (Staphylococcus aureus [19]) of the same compound?
Answer: 0.098 µg/mL (≈ 0.256 µM)

Question: And the MIC (Bacillus subtilis)?
Answer: 0.05 µg/mL (≈ 0.13 µM)

Question: And the MIC (Staphylococcus aureus [20])?
Answer: 0.1 µg/mL (≈ 0.261 µM)

Question: What about the MIC (Providencia rettgeri [21]) of the same compound?
Answer: 0.1 µg/mL (≈ 0.261 µM)

Question: And the MIC (Pseudomonas aeruginosa [22])?
Answer: 0.8 µg/mL (≈ 2.09 µM)

Question: What about the MIC (Staphylococcus aureus [23]) of the same compound?
Answer: 0.098 µg/mL (≈ 0.256 µM)

Question: And the MIC (Escherichia coli [24])?
Answer: 0.03 µg/mL (≈ 0.0782 µM)

Question: What about the MIC (Enterococcus faecium) of the same compound?
Answer: 0.01 µg/mL (≈ 0.0261 µM)

Question: What about the MIC (Salmonella typhimurium) of the same compound?
Answer: 0.025 µg/mL (≈ 0.0652 µM)

Question: And the MIC (Klebsiella aerogenes)?
Answer: 0.049 µg/mL (≈ 0.128 µM)

Question: What about the MIC (Trueperella pyogenes) of the same compound?
Answer: 0.03 µg/mL (≈ 0.0782 µM)

Question: What about the MIC (Enterobacter cloacae [25]) of the same compound?
Answer: 0.03 µg/mL (≈ 0.0782 µM)

Question: What about the MIC (Salmonella typhi) of the same compound?
Answer: 0.01 µg/mL (≈ 0.0261 µM)

Question: And the MIC (Pseudomonas aeruginosa [26])?
Answer: 0.195 µg/mL (≈ 0.509 µM)

Question: And the MIC (Escherichia coli [27])?
Answer: 0.025 µg/mL (≈ 0.0652 µM)

Question: What about the MIC (Serratia marcescens [28]) of the same compound?
Answer: 0.05 µg/mL (≈ 0.13 µM)

Question: And the MIC (Priestia megaterium)?
Answer: 0.05 µg/mL (≈ 0.13 µM)

Question: What about the MIC (Pseudomonas aeruginosa [29]) of the same compound?
Answer: 0.4 µg/mL (≈ 1.04 µM)

Question: And the MIC (Escherichia coli [30])?
Answer: 0.03 µg/mL (≈ 0.0782 µM)

Question: What about the MIC (Enterobacter cloacae [31]) of the same compound?
Answer: 0.025 µg/mL (≈ 0.0652 µM)

Question: With `CO/N=C(\CNC(C)=O)[C@@H]1C[C@H](SC2=C(C(=O)O)N3C(=O)[C@H]([C@@H](C)O)[C@H]3[C@H]2C)CN1` as the compound, how does the MIC (Escherichia coli [9]) read?
Answer: 0.025 µg/mL (≈ 0.0568 µM)

Question: And the MIC (Streptococcus pyogenes [13])?
Answer: 0.013 µg/mL (≈ 0.0295 µM)

Question: And the MIC (Streptococcus pyogenes [15])?
Answer: < 0.01 µg/mL

Question: What about the MIC (Staphylococcus aureus [19]) of the same compound?
Answer: 0.098 µg/mL (≈ 0.222 µM)

Question: And the MIC (Staphylococcus aureus [23])?
Answer: 0.049 µg/mL (≈ 0.111 µM)

Question: What about the MIC (Salmonella typhimurium) of the same compound?
Answer: 0.049 µg/mL (≈ 0.111 µM)

Question: And the MIC (Klebsiella aerogenes)?
Answer: 0.049 µg/mL (≈ 0.111 µM)

Question: What about the MIC (Pseudomonas aeruginosa [26]) of the same compound?
Answer: 1.56 µg/mL (≈ 3.54 µM)

Question: And the MIC (Escherichia coli [27])?
Answer: 0.025 µg/mL (≈ 0.0568 µM)

Question: What about the MIC (Enterobacter cloacae [31]) of the same compound?
Answer: 0.013 µg/mL (≈ 0.0295 µM)

Question: For `CCNS(=O)(=O)NC/C(=N\OC)[C@@H]1C[C@H](SC2=C(C(=O)O)N3C(=O)[C@H]([C@@H](C)O)[C@H]3[C@H]2C)CN1`, which MIC (Escherichia coli [9]) is on record?
Answer: 0.049 µg/mL (≈ 0.0969 µM)

Question: And the MIC (Streptococcus pyogenes [13])?
Answer: < 0.01 µg/mL

Question: What about the MIC (Streptococcus pyogenes [15]) of the same compound?
Answer: < 0.01 µg/mL

Question: What about the MIC (Staphylococcus aureus [19]) of the same compound?
Answer: 0.098 µg/mL (≈ 0.194 µM)

Question: What about the MIC (Staphylococcus aureus [23]) of the same compound?
Answer: 0.049 µg/mL (≈ 0.0969 µM)

Question: And the MIC (Salmonella typhimurium)?
Answer: 0.025 µg/mL (≈ 0.0494 µM)

Question: And the MIC (Klebsiella aerogenes)?
Answer: 0.049 µg/mL (≈ 0.0969 µM)

Question: What about the MIC (Pseudomonas aeruginosa [26]) of the same compound?
Answer: 3.12 µg/mL (≈ 6.17 µM)

Question: What about the MIC (Escherichia coli [27]) of the same compound?
Answer: 0.013 µg/mL (≈ 0.0257 µM)

Question: What about the MIC (Enterobacter cloacae [31]) of the same compound?
Answer: 0.025 µg/mL (≈ 0.0494 µM)
